Laboratory results: patent US20250145642A1, “BICYCLIC HETEROARENES AND METHODS OF THEIR USE” (Kineta, Inc., priority 2021, published 2025)

Target: full-length human PIKFYVE (N-terminal GST-fusion) (Homo sapiens (Human), UniProt Q9Y2I7, L932S/Q1183K/Q995L/S1033A/S696N/T998S)
Assay: PIKfyve biochemical assay (ADP-Glo Kinase assay, Carna Biosciences)
Conditions: ADP-Glo, full-length human GST-PIKFYVE, 10 μM to 3 nM; read-out: hPIKfyve IC50
Source text: (§1) PIKfyve Biochemical Assay. The biochemical PIKfyve inhibition assays were run by Carna Biosciences according to proprietary methodology based on the Promega ADP-Glo™ Kinase assay. A full-length human PIKFYVE [1-2098(end) amino acids and S696N, L932S, Q995L, T998S, S1033A and Q1183K of the protein having the sequence set forth in NCBI Reference Sequence No. NP_055855.2] was expressed as N-terminal GST-fusion protein (265 kDa) using baculovirus expression system. GST-PIKFYVE was purified by using glutathione sepharose chromatography and used in an ADP-Glo™ Kinase assay (Promega). Reactions were set up by adding the test compound solution, substrate solution, ATP solution and kinase solution, each at 4× final concentrations. Reactions were prepared with assay buffer (50 mM MOPS, 1 mM DTT, pH7.2), mixed, and incubated in black 384 well polystyrene plates for 1 hour at room temperature. ADP-Glo™ reagent was then added for 40 minutes, followed by kinase detection reagent for an additional 40 minutes. The kinase activity was evaluated by detecting relative light units on a luminescence plate reader. Samples were run in duplicate from 10 μM to 3 nM. […] IC50 values were calculated from concentration vs % inhibition curves by fitting to a four-parameter logistic curve.
as §1, with “The” for “PIKfyve Biochemical Assay. The”, “accession number” for “the protein having the sequence set forth in NCBI Reference Sequence No.”, “curve. […]” for “curve.”

Chain of full-length human PIKFYVE (N-terminal GST-fusion) (Q9Y2I7 whole entry S696N/L932S/Q995L/T998S/S1033A/Q1183K, the tested form may be a part): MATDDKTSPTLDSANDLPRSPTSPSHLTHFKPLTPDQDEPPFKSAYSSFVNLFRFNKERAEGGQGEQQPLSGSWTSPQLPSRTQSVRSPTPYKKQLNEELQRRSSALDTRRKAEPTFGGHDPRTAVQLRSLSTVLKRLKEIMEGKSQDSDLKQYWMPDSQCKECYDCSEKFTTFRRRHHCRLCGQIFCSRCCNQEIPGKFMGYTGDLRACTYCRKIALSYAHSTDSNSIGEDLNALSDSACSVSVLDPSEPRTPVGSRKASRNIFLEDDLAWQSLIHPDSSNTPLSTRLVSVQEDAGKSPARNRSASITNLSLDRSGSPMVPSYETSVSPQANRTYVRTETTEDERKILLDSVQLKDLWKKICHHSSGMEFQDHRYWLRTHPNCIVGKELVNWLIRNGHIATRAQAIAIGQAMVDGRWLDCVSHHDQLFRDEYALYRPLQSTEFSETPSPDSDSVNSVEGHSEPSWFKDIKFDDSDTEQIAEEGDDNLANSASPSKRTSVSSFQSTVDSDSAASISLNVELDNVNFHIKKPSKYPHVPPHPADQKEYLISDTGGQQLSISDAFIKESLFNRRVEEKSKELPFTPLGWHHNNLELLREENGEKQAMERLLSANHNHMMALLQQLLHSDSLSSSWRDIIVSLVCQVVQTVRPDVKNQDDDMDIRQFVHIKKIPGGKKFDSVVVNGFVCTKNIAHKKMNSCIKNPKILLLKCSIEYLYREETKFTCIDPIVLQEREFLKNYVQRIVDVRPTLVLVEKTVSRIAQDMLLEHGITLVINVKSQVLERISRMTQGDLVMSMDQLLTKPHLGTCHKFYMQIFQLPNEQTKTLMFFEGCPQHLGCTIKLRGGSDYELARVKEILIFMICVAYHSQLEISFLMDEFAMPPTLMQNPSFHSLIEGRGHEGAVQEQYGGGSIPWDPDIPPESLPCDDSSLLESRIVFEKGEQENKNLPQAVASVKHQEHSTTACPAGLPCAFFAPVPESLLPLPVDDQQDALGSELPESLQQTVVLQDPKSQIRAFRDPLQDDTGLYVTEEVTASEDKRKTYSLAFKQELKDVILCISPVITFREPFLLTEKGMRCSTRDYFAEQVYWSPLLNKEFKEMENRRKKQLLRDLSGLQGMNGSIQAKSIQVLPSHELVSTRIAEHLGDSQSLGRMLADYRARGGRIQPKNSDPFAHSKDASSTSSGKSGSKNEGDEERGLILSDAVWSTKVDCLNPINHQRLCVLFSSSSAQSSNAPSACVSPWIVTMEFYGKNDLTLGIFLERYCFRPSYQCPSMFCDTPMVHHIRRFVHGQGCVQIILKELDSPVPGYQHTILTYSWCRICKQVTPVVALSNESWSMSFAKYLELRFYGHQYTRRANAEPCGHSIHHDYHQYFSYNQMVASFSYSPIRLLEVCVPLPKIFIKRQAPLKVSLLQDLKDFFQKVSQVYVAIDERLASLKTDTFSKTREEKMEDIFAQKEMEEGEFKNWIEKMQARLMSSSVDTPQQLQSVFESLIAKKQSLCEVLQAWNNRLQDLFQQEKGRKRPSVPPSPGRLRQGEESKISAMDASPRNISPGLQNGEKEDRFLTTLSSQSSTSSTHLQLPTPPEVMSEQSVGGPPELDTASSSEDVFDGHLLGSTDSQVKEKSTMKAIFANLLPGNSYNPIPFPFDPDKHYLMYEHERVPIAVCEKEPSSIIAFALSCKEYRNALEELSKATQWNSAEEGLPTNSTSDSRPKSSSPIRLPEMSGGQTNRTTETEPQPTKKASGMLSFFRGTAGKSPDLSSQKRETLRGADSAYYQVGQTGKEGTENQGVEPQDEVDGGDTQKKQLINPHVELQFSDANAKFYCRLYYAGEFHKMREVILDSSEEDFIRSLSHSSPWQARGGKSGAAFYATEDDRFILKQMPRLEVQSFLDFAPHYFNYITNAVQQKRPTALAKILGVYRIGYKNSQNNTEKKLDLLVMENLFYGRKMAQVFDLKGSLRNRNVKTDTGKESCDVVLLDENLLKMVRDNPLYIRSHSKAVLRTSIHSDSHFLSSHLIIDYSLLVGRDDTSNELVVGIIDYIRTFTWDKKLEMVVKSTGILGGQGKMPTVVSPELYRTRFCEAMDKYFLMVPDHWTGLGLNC

Structure (SMILES) | IC50
c1ccc(N2CCc3c(OC4CCOC4)nc(N4CCOCC4)nc32)cc1 (centres unmarked) [Compound 22, 4-(7-phenyl-4-((tetrahydrofuran-3-yl)oxy)-6,7-dihydro-5H-pyrrolo[2,3-d]pyrimidin-2-yl)morpholine] | 0.1 to 1 µM
c1cncc(-c2nc(N3CCOCC3)nc3c2CCN3c2ccc3c(c2)OCO3)c1 [Compound 102, 4-(7-(benzo[d][1,3]dioxol-5-yl)-4-(pyridin-3-yl)-6,7-dihydro-5H-pyrrolo[2,3-d]pyrimidin-2-yl)morpholine] | 0.01 to 0.1 µM
c1cncc(N2CCc3c(OCC4CCCO4)nc(N4CCOCC4)nc32)c1 (centres unmarked) [Compound 23, 4-(7-(pyridin-3-yl)-4-((tetrahydrofuran-2-yl)methoxy)-6,7-dihydro-6H-pyrrolo[2,3-d]pyrimidin-2-yl)morpholine] | 0.1 to 1 µM
c1ccc(-n2ccc(N3CCc4c(Oc5cccnc5)nc(N5CCOCC5)nc43)n2)cc1 [Compound 70, 4-(7-(1-phenyl-1H-pyrazol-3-yl)-4-(pyridin-3-yloxy)-6,7-dihydro-5H-pyrrolo[2,3-d]pyrimidin-2-yl)morpholine] | 1 to 10 µM
c1ccc(N2CCc3c(C4CCNCC4)nc(N4CCOCC4)nc32)cc1 [Compound 111, 4-(7-phenyl-4-(piperidin-4-yl)-6,7-dihydro-5H-pyrrolo[2,3-d]pyrimidin-2-yl)morpholine] | 0.1 to 1 µM
c1ccc(N2CCc3c(-c4ccccn4)nc(N4CCOCC4)nc32)cc1 [Compound 90, 4-(7-phenyl-4-(pyridin-2-yl)-6,7-dihydro-5H-pyrrolo[2,3-d]pyrimidin-2-yl)morpholine] | 0.1 to 1 µM
Cc1cccc(/C=N/Nc2nc(N3CCOCC3)nc3c2CCN3c2cccnc2)c1 [Compound 82, (E)-4-(4-(2-(3-methylbenzylidene)hydrazineyl)-7-(pyridin-3-yl)-6,7-dihydro-6H-pyrrolo[2,3-d]pyrimidin-2-yl)morpholine] | < 0.01 µM
CN1CCC(c2nc(N3CCOCC3)nc3c2CCN3c2ccccc2)C1 (centres unmarked) [Compound 121, 4-(4-(1-methylpyrrolidin-3-yl)-7-phenyl-6,7-dihydro-H-pyrrolo[2,3-d]pyrimidin-2-yl)morpholine] | 0.1 to 1 µM
O=C(C1CC1)N1CCC(c2nc(N3CCOCC3)nc3c2CCN3c2ccccc2)C1 (centres unmarked) [Compound 118, cyclopropyl(3-(2-morpholino-7-phenyl-6,7-dihydro-5H-pyrrolo[2,3-d]pyrimidin-4-yl)pyrrolidin-1-yl)methanone] | < 0.01 µM
COc1cccc(N2CCc3c(OCC4CCCN(C)C4)nc(N4CCOCC4)nc32)c1 (centres unmarked) [Compound 13, 4-(7-(3-methoxyphenyl)-4-((1-methylpiperidin-3-yl)methoxy)-6,7-dihydro-5H-pyrrolo[2,3-d]pyrimidin-2-yl)morpholine] | 0.01 to 0.1 µM
c1ccc(N2CCc3c(OCC4CCCO4)nc(N4CCOCC4)nc32)cc1 (centres unmarked) [Compound 29, 4-(7-phenyl-4-((tetrahydrofuran-2-yl)methoxy)-6,7-dihydro-5H-pyrrolo[2,3-d]pyrimidin-2-yl)morpholine] | 0.1 to 1 µM
CC(=O)N1CCC(COc2nc(N3CCOCC3)nc3c2CCN3c2cccnc2)C1 (centres unmarked) [Compound 36, 1-(3-(((2-morpholino-7-(pyridin-3-yl)-6,7-dihydro-5H-pyrrolo[2,3-d]pyrimidin-4-yl)oxy)methyl)pyrrolidin-1-yl)ethan-1-one] | 0.1 to 1 µM
Cc1nc(N2CCOCC2)nc2c1CCN2c1ccccc1 [Compound 45, 4-(4-methyl-7-phenyl-6,7-dihydro-5H-pyrrolo[2,3-d]pyrimidin-2-yl)morpholine] | 0.1 to 1 µM
c1ccc(N2CCc3c(OCc4cnccn4)nc(N4CCOCC4)nc32)cc1 [Compound 15, 4-(7-phenyl-4-(pyrazin-2-ylmethoxy)-6,7-dihydro-5H-pyrrolo[2,3-d]pyrimidin-2-yl)morpholine] | 0.01 to 0.1 µM
c1ccc(N2CCc3c(-c4cncnc4)nc(N4CCOCC4)nc32)cc1 [Compound 100, 4-(7-phenyl-4-(pyrimidin-5-yl)-6,7-dihydro-5H-pyrrolo[2,3-d]pyrimidin-2-yl)morpholine] | 0.01 to 0.1 µM
c1ccc(N2CCc3c(C4CCOCC4)nc(N4CCOCC4)nc32)cc1 [Compound 86, 4-(7-phenyl-4-(tetrahydro-2H-pyran-4-yl)-6,7-dihydro-5H-pyrrolo[2,3-d]pyrimidin-2-yl)morpholine] | 0.1 to 1 µM

Structure (SMILES) | IC50
c1ccc(Oc2nc(N3CCOCC3)nc3c2CCN3c2cccnc2)nc1 [Compound 51, 4-(4-(pyridin-2-yloxy)-7-(pyridin-3-yl)-6,7-dihydro-5H-pyrrolo[2,3-d]pyrimidin-2-yl)morpholine] | 0.1 to 1 µM
O=c1ccccn1-c1nc(N2CCOCC2)nc2c1CCN2c1ccccc1 [Compound 50, 1-(2-morpholino-7-phenyl-6,7-dihydro-5H-pyrrolo[2,3-d]pyrimidin-4-yl)pyridin-2(1H)-one] | 0.1 to 1 µM
CN1CCC(OCc2nc(N3CCOCC3)nc3c2CCN3c2cccnc2)C1 (centres unmarked) [Compound 66, 4-(4-((1-methylpyrrolidin-3-yloxy)methyl)-7-(pyridin-3-yl)-6,7-dihydro-5H-pyrrolo[2,3-d]pyrimidin-2-yl)morpholine] | 1 to 10 µM
c1cncc(-c2nc(N3CCOCC3)nc3c2CCN3c2ccc3c(c2)OCCO3)c1 [Compound 103, 4-(7-(2,3-dihydrobenzo[b][1,4]dioxin-6-yl)-4-(pyridin-3-yl)-6,7-dihydro-5H-pyrrolo[2,3-d]pyrimidin-2-yl)morpholine] | < 0.01 µM
CN1CCCC(COc2nc(N3CCOCC3)nc3c2CCN3c2ccnnc2)C1 (centres unmarked) [Compound 17, 4-(4-((1-methylpiperidin-3-yl)methoxy)-7-(pyridazin-4-yl)-6,7-dihydro-5H-pyrrolo[2,3-d]pyrimidin-2-yl)morpholine] | 0.1 to 1 µM
COc1nc(N2CCOCC2)nc2c1CCN2c1ccccc1 [Compound 48, 4-(4-methoxy-7-phenyl-6,7-dihydro-5H-pyrrolo[2,3-d]pyrimidin-2-yl)morpholine] | 0.01 to 0.1 µM
c1ccc(N2CCc3cnc(N4CCOCC4)nc32)cc1 [Compound 2, 4-(7-phenyl-6,7-dihydro-5H-pyrrolo[2,3-d]pyrimidin-2-yl)morpholine] | 0.1 to 1 µM
CC(C)(C)OC(=O)N1CC(COc2nc(N3CCOCC3)nc3c2CCN3c2cccnc2)C1 [Compound 37, tert-butyl 3-(((2-morpholino-7-(pyridin-3-yl)-6,7-dihydro-5H-pyrrolo[2,3-d]pyrimidin-4-yl)oxy)methyl)azetidine-1-carboxylate] | 0.1 to 1 µM
c1cc(-c2nc(N3CCOCC3)nc3c2CCN3C2CCOCC2)ccn1 [Compound 95, 4-(4-(pyridin-4-yl)-7-(tetrahydro-2H-pyran-4-yl)-6,7-dihydro-5H-pyrrolo[2,3-d]pyrimidin-2-yl)morpholine] | 0.1 to 1 µM
c1cncc(N2CCc3c(-c4ccncc4)nc(N4CCOCC4)nc32)c1 [Compound 105, 4-(7-(pyridin-3-yl)-4-(pyridin-4-yl)-6,7-dihydro-5H-pyrrolo[2,3-d]pyrimidin-2-yl)morpholine] | 0.01 to 0.1 µM
c1cncc(N2CCc3c(OCC4CNC4)nc(N4CCOCC4)nc32)c1 [Compound 38, 4-(4-(azetidin-3-ylmethoxy)-7-(pyridin-3-yl)-6,7-dihydro-5H-pyrrolo[2,3-d]pyrimidin-2-yl)morpholine] | 0.1 to 1 µM
c1ccc(-n2cc(N3CCc4c(Oc5cccnc5)nc(N5CCOCC5)nc43)nn2)cc1 [Compound 69, 4-(7-(1-phenyl-1H-1,2,3-triazol-4-yl)-4-(pyridin-3-yloxy)-6,7-dihydro-5H-pyrrolo[2,3-d]pyrimidin-2-yl)morpholine] | 0.01 to 0.1 µM
c1ccc(N2CCc3c(Oc4ccncc4)nc(N4CCOCC4)nc32)cc1 [Compound 54, 4-(7-phenyl-4-(pyridin-4-yloxy)-6,7-dihydro-5H-pyrrolo[2,3-d]pyrimidin-2-yl)morpholine] | 0.01 to 0.1 µM
c1cncc(Oc2nc(N3CCOCC3)nc3c2CCN3c2cccnc2)c1 [Compound 55, 4-(7-(pyridin-3-yl)-4-(pyridin-3-yloxy)-6,7-dihydro-5H-pyrrolo[2,3-d]pyrimidin-2-yl)morpholine] | 0.1 to 1 µM
CN1CCC(c2nc(N3CCOCC3)nc3c2CCN3c2ccccc2)CC1 [Compound 112, 4-(4-(1-methylpiperidin-4-yl)-7-phenyl-6,7-dihydro-5H-pyrrolo[2,3-d]pyrimidin-2-yl)morpholine] | 0.01 to 0.1 µM
Oc1ccc[n+](Cc2nc(N3CCOCC3)nc3c2CCN3c2ccccc2)c1 [Compound 60, 5-hydroxy-1-((2-morpholino-7-phenyl-6,7-dihydro-5H-pyrrolo[2,3-d]pyrimidin-4-yl)methyl)pyridin-1-ium-3-ylium] | 0.1 to 1 µM
